Consider 6 molecules from patent US7132296B2, “Method for assaying the antioxidant capacity of a sample” (Medical Products Manufacturing, LLC, priority 2002, dated 2006).

The nature of assay [1]: ORAC assay with fluorescein probe (ORACFL), peroxyl radical scavenging assay. It counts as biochemical. Particulars: for Ratio (ORACFL/ORACB-PE): chemicals, Table 1; for ORACFL: fluorescein probe, calculated based on equation 2, n > 3. How it is done: (§1) In accordance with the subject invention the area under the curve (AUC) for the sample, standard, and blank are calculated as: AUC=0.5+f1/f0+f2/f0+f3/f0+f4/f0+ . . . +fi/f0 (1) Where f0=initial fluorescence reading at 0 minute, and fi is the fluorescence reading at time i. Typically, equation (1) is solved and the data analyzed in an electronic spreadsheet such as Microsoft Excel or other similar products or computer programs. The AUC is calculated for sample 60, standard 62 and blank 64. The net AUC is obtained by subtracting the AUC of blank 64 from sample 60. The relative ORAC value for sample 60, expressed in Trolox equivalents is calculated as: Relative ORAC value=[(AUCsample−AUCBlank)/(AUCTrolox−AUCBlank)]×(molarity of Trolox/molarity of sample) (2)
Flavonoid compounds and β-phycoerythrin were purchased from Sigma (St. Louis, Mo.). Trolox, ascorbic acid and disodium fluorescein were obtained from Aldrich (Milwaukee, Wis.). 2,2′-azobis (2-amidino-propane) dihydrochloride (AAPH) was purchased from Wako Chemicals USA (Richmond, Va.). Various analyzed samples were also obtained. ORAC analyses were performed on a COBAS FARA II analyzer (Roche Diagnostic System Inc., Branchburg, N.J.; Excitation wavelength=493 nm and emission filter=515 nm).
Ascorbic acid and flavonoids were directly dissolved in acetone/water mixture (50:50, v/v) and diluted with pH 7.4 phosphate buffer for analysis. The solid samples were initially ground in a mechanical mill to produce a fine power; then 0.5 grams were accurately weighed and 20 mL of acetone/water (50:50, v/v) extraction solvent was added. The mixture was shaken at 400 RPM at room temperature on an orbital shaker for one hour. The extracts were centrifuged at 14000 rpm for 15 min, and the supernatant was ready for analysis after appropriate dilution with buffer solution. For liquid samples, a 20 mL aliquot of sample was centrifuged for 15 min and the supernatant was ready for analysis after appropriate dilution. Blood plasma or serum was diluted 100 to 200 fold with pH 7.4 phosphate buffer before analysis. To measure the ORAC in non-protein fraction, protein was removed using 0.5 N perchloric acid (1:1; v:v; plasma:acid), the samples were then centrifuged at 140,000×g for 10 min at 4° C., and the supernatants were removed as the serum nonprotein fractions and appropriately diluted with pH 7.4 phosphate buffer before the analysis.
Peroxyl radical scavenging assay. The COBAS FARA II was programmed to use a two-reagent system (Reaction Mode 3, P-I-SRI-A). The reaction mode pipetted and transferred the sample (20 μL), phosphate buffer (5 μL, 0.75 mM, pH 7.4), and main reagent (365 μL FL, 4.8×10^−8 M) into the main reagent wells of their respective cuvette rotor positions. With spinning of the rotor, the reagents are mixed and incubated for 30 s before recording the initial fluorescence (f0). After the rotor stops spinning, a start reagent (SRI), 8 μL of APPH (0.64M) plus 2 μL of the phosphate buffer is pipetted into the appropriate start reagent well in the curvette rotor. Next, the analyzer starts spinning, mixing of the sample/FL with AAPH reagent and the oxidative reaction starts. […] Between transfers, both sample and reagent transfer pipettes are washed with clean solution to eliminate sample cross contamination. Fluorescence readings are taken at 0.5 s and then every minute thereafter (f1, f2, f3 . . . ) for a duration of 30 min. If the fluorescence of the final reading has not declined by >95% from the first reading, the dilution of sample is adjusted accordingly and the sample is reanalyzed. To determine the maximum voltage for the photomultiplier tube, the AAPH reagent is omitted and is replaced with buffer, and the analysis is run for 10 min. FL and AAPH were prepared in a 0.75 mM phosphate buffer. FL working solution was routinely preincubated in a waterbath at 37° C. for 15 min before loading into the COBAS reagent rack.

A short description of assay [2]: ORAC assay with B-phycoerythrin probe (ORACB-PE / ORACPE). It counts as biochemical. To be noted: calculated based on equation 2, n > 3. On the procedure:
In accordance with the published ORAC assay, a sample such as fresh fruit, blood senun, or an additive or supplement in powder form is prepared for extraction and extracted first in water and then in acetone. A protein based fluorescent probe, namely B-phycoerythrin (B-PE) is then added to the extract. A standard, having high antioxidant capacity, such as diluted grape seed extract (GSE) or TROLOX® (6-hydroxy-2,5,7,8-tetramethylchroman-2-carboxylic acid), a water soluble analog of vitamin E, is added to the extract to provide a comparison of the antioxidant capacity of the sample to the standard. The extract, the standard, and a blank sample are then loaded into the COBAS FARA II device and an initial fluorescence emission of the probe is taken. Next, AAPH, (2,2′-azobis (2-amidino-propane) dihydrochloride), which generates free radicals upon heating, is added to the extract of the sample and the standard and fluorescence emission readings are taken until a zero value is reached for the extract of the sample. To measure the protective effect of an antioxidant using the ORAC assay, the area under the fluorescence decay curve (AUC) of the sample is calculated and compared to that of the blank in which no antioxidant is present.
After the fluorescent readings are taken, the ORAC values are calculated by using a regression equation between standard concentration 62, FIG. 7, and the net area under the B-PE decay curve of sample 60. ORAC values are typically expressed in μmole Trolox equivalent per liter or per gram.
as §1

Take `O=C(O)/C=C/c1ccc(O)c(O)c1` [Caffeic Acid]: in assay [1], the “Ratio (ORACFL/ORACB-PE)” value was determined as 3.12 and the ORACFL is on record as 4.37 ± 0.24 relative Trolox equivalent. In addition, in assay [2], the ORACB-PE was 1.40 ± 0.09 relative Trolox equivalent.

As for `O=c1c(-c2ccc(O)cc2)coc2cc(O)cc(O)c12` [Genistein], in assay [1], the “Ratio (ORACFL/ORACB-PE)” value came to 2.57 and the ORACFL is recorded as 5.93 ± 0.45 relative Trolox equivalent. In assay [2], the ORACB-PE is 2.3 ± 0.16 relative Trolox equivalent.

Consider `N[C@@H](CCC(=O)N[C@@H](CS)C(=O)NCC(=O)O)C(=O)O` [Glutathione], for which, in assay [1], the “Ratio (ORACFL/ORACB-PE)” value turned out to be 1.94 and the ORACFL is listed as 0.62 ± 0.02 relative Trolox equivalent. For the same molecule, the ORACB-PE in assay [2] is on record as 0.32 ± 0.01 relative Trolox equivalent.

Take `O=c1c(O)c(-c2ccc(O)c(O)c2)oc2cc(O)cc(O)c12` [Quercetin]: in assay [1], the “Ratio (ORACFL/ORACB-PE)” value was 2.11 and the ORACFL is 4.38 ± 0.22 relative Trolox equivalent. The ORACB-PE in assay [2] is given as 2.07 ± 0.05 relative Trolox equivalent.

Consider `C[C@@H]1O[C@@H](Oc2c(-c3ccc(O)c(O)c3)oc3cc(O)cc(O)c3c2=O)[C@H](O)[C@H](O)[C@H]1O` [Quercetrin], for which, in assay [1], the “Ratio (ORACFL/ORACB-PE)” value stood at 2.15 and the ORACFL was 5.87 ± 0.49 relative Trolox equivalent. Further, the ORACB-PE in assay [2] was 2.70 ± 0.18 relative Trolox equivalent.

In the case of `O=C1O[C@H]([C@@H](O)CO)C(O)=C1O` [Vitamin C], in assay [1], the “Ratio (ORACFL/ORACB-PE)” value was 2.21 and the ORACFL is on record as 0.95 ± 0.02 relative Trolox equivalent. For the same molecule, the ORACB-PE in assay [2] is 0.43 ± 0.03 relative Trolox equivalent.
